US9346820B2, “HIV-1 protease inhibitors having gem-di-fluoro bicyclic P2-ligands” (priority 2013, dated 2016)
Several values for one entry are separate records, joined by “and”; a condition that tells them apart may be missing. Equal entries are not always repeated. Where two headings read alike, the source gives them in different places.

How the values were obtained:
HIV-1ERS104pre = test: p24 Gag production inhibition in PHA-PBMs, wild-type clinical isolate; format: cell-based
Protocol: (§1) All primary HIV-1 strains were passaged once or twice in 3-day-old phytohemagglutinin activated peripheral blood mononuclear cells (PHA-PBM), and the culture supernatants were stored at −80° C. until use.
(§2) The susceptibility of HIV-1LAI to various drugs was determined as previously described with minor modifications. Briefly, MT-2 cells (10^4/ml) were exposed to 100 50% tissue culture infectious doses (TCID50) of HIV-1LAI in the presence or absence of various concentrations of drugs in 96-well microculture plates and were incubated at 37° C. for 7 days. After 100 μl of the medium was removed from each well, 3-(4,5-dimetylthiazol-2-yl)-2,5-diphenyltetrazolium bromide (MTT) solution (10 μl, 7.5 mg/ml in phosphate-buffered saline) was added to each well in the plate, followed by incubation at 37° C. for 2 h. […] All assays were performed in duplicate or triplicate. […] To determine the sensitivity of primary HIV-1 isolates to drugs, phytohemagglutinin-stimulated peripheral blood mononuclear cells (PHA-PBMC) (10^6/ml) were exposed to 50 TCID50 of each primary HIV-1 isolate and cultured in the presence or absence of various concentrations of drugs in 10-fold serial dilutions in 96-well microculture plates. In determining the drug susceptibility of certain laboratory HIV-1 strains, MT-4 cells were employed as target cells as previously described with minor modifications. In brief, MT-4 cells (10^5/ml) were exposed to 100 TCID50 of drug-resistant HIV-1 strains in the presence or absence of various concentrations of drugs and were incubated at 37° C. On day 7 of culture, the supernatants were harvested and the amounts of p24 Gag protein were determined by using a fully automated chemiluminescent enzyme immunoassay system (Lumipulse F: Fujirebio Inc., Tokyo). […] All assays were performed in duplicate or triplicate. PHA-PBMs were derived from a single donor in each independent experiment. Thus, for obtaining the data, three different donors were recruited.

HIV-1MDR/C = test: microbe, parasite or virus in culture; format: cell-based; conditions: for EC50: Human immunodeficiency virus 1, read-out: EC50 HIV-1MDR/C (X4); for fold change of EC50 HIV-1MDR/C vs HIV-1ERS104pre: number in parentheses
Protocol: as §1, §2

HIV-1MDR/G = test: microbe, parasite or virus in culture; format: cell-based; conditions: for EC50: Human immunodeficiency virus 1, read-out: EC50 HIV-1MDR/G (X4); for fold change of EC50 HIV-1MDR/G vs HIV-1ERS104pre: number in parentheses
Protocol: as §1, §2

HIV-1MDR/JSL = test: microbe, parasite or virus in culture; format: cell-based; conditions: for EC50: Human immunodeficiency virus 1, read-out: EC50 HIV-1MDR/JSL (R5); for fold change of EC50 HIV-1MDR/JSL vs HIV-1ERS104pre: number in parentheses
Protocol: as §1, §2

HIV-1MDR/MM = test: microbe, parasite or virus in culture; format: cell-based; conditions: for EC50: Human immunodeficiency virus 1, read-out: EC50 HIV-1MDR/MM (R5); for fold change of EC50 HIV-1MDR/MM vs HIV-1ERS104pre: number in parentheses
Protocol: as §1, §2

HIV-1MDR/TM = test: microbe, parasite or virus in culture; format: cell-based; conditions: for EC50: Human immunodeficiency virus 1, read-out: EC50 HIV-1MDR/TM (X4); for fold change of EC50 HIV-1MDR/TM vs HIV-1ERS104pre: number in parentheses
Protocol: as §1, §2

[1] = Partition and distribution coefficients, shake-flask method; format: physicochemical; conditions: for Concentration in octanol^(b): n-octanol used for logD assay; for Concentration in octanol^(a): n-octanol used for logPOW determination; for Log DOct/Tris pH 7.40: pH 7.4; for Concentration in tris buffer / Concentration in water: shake flask, 100 μM, 230 nm
Protocol: On day −1 of the experimental setting, saturation of 1-octanol (CH3 (CH2)6CH2OH) (Nacalai Tesque, Kyoto, Japan) water and tris-buffered saline (10X working solution 20 mM Tris, pH 7.4 and 0.9% NaCl, Sigma-Aldrich, St. Louis, Mo.) took place. Four different flasks were used: One containing 50 ml of water plus 100 ml of 1-octanol, the second flask contained 1-octanol saturated with water adding 50 ml of 1-octanol and 100 ml of water. The same ratios and volumes were kept for 1-octanol saturated with tris-buffer and tris-buffer saturated with 1-octanol. The flasks were sealed and placed into a room temperature bio shaker for 24 hours at 90 revolutions per minute. […] Successive dilutions were made to obtain concentrations of 10 μM, 1 μM and 0.1 μM. A standard curve was generated on a light spectrophotometer (DU Series 700, Beckman Coulter Fullerton, Calif.) at 230 nanometer absorbances.
On day 1 of the experiment, the lipid and liquid interfaces were separated, and compounds were diluted again from 20 mM DMSO to 100 μM using the 1-octanol, water and Tris-buffered saline obtained from the shake-flask assay. The resulting diluted compounds were then added to separate serum tubes containing equal proportions of 1-octanol and water, and 1-octanol and Tris-buffered saline. The solution was handshaken for 5 minutes and then centrifuged at 3,500 rpm and room temperature for 20 minutes. Finally, the compounds were recovered from the 1-octanol, Tris-buffer and water interfaces and then measured on a light spectrophotometer.
The values for logP and logD were obtained by applying the following mathematical formulas: […]
The addition of fluorine atoms is generally expected to confer greater lipophilicity on nucleoside analogs and certain compounds (37-39). […] 1-Octanol, organic alcohol, and water were used for logP determination, while tris-buffered saline (pH 7.4) and water were utilized for logD determination. Prior to obtaining the actual values, a standard curve was generated as a reference and drug concentrations attained for each compartment (1-octanol, water and tris-buffered saline) were measured on a light spectrophotometer (at 230 nanometer absorbance) as previously described by Rak et al. (40).
DRV was used as a control. N-octanol, an organic alcohol, and water were used for logP determination, while tris buffer and water were utilized for the logD assay. Prior to the retrieval of actual values a standard curve was generated as a reference. The drug concentrations for each compartment (octanol, water and tris buffer) were measured at 230 nanometer absorbances using a light spectrophotometer. Assay was performed following the OECD guidelines for testing of chemicals “Partition coefficient (n-octanol-water): shake flask method”, adopted by the council on 27 Jul. 1995.^(a) n-octanol used for logPOW determination;^(b) n-octanol used for logD assay. The formulas

HIV-1MDR/B = test: microbe, parasite or virus in culture; format: cell-based; conditions: for EC50: Human immunodeficiency virus 1, read-out: EC50 HIV-1MDR/B (X4); for fold change of EC50 HIV-1MDR/B vs HIV-1ERS104pre: number in parentheses
Protocol: as §1, §2

[2] = tested on: HIV-1GRL-04810^RP18, and HIV-1GRL-05010^RP10; test: p24 assay, the two GRL-selected variants taken together; format: cell-based; conditions: Human immunodeficiency virus 1, read-out: EC50 values against HIV-1GRL-04810^RP18 and HIV-1GRL-05010^RP10
Protocol: as §2

HIV-1LAI = test: Antiviral activity of brain-side medium from the BBB assay, MTT assay in MT-2 cells; format: cell-based
Protocol: The “brain-side” of the medium containing a compound collected in the BBB in vitro assay, was subjected to antiviral assays. Two HIV-1 isolates were employed, HIV-1LAI (Panel A) and HIV-1ERS104pre (Panel B). […] Dilution ranges were between 10-fold and 10,000-fold, and the percentage of viral inhibition was used as an endpoint. […] Assays were conducted in duplicate and error bars show standard deviations.
The assay was carried out using 10, 100, 1000 and 10000 times-diluted brain-side stocks of compounds.

[3] = Human immunodeficiency virus 1, read-out: EC50 HIV-1ERS104pre (X4)
[4] = Human immunodeficiency virus 1, PHA-PBMs, p24 Gag endpoint, read-out: EC50 HIV-1ERS104pre (X4)
[5] = 10-fold diluted brain-side medium
[6] = 100-fold diluted brain-side medium

Row | SMILES | EC50 (HIV-1ERS104pre; [3]) [nM] | EC50 (HIV-1MDR/C) [nM] | EC50 (HIV-1MDR/G) [nM] | EC50 (HIV-1MDR/JSL) [nM] | EC50 (HIV-1MDR/MM) [nM] | EC50 (HIV-1MDR/TM) [nM] | EC50 (HIV-1MDR/B) [nM] | fold change of EC50 HIV-1MDR/B vs HIV-1ERS104pre (HIV-1MDR/B) [fold] | fold change of EC50 HIV-1MDR/C vs HIV-1ERS104pre (HIV-1MDR/C) [fold] | fold change of EC50 HIV-1MDR/G vs HIV-1ERS104pre (HIV-1MDR/G) [fold] | fold change of EC50 HIV-1MDR/JSL vs HIV-1ERS104pre (HIV-1MDR/JSL) [fold] | fold change of EC50 HIV-1MDR/MM vs HIV-1ERS104pre (HIV-1MDR/MM) [fold] | fold change of EC50 HIV-1MDR/TM vs HIV-1ERS104pre (HIV-1MDR/TM) [fold] | EC50 (HIV-1ERS104pre; [4]) [nM] | EC50 [2] [nM] | Log POW (Octanol/Water) [1] | Concentration in octanol^(b) [1] | Concentration in octanol^(a) [1] [µM] | Log DOct/Tris pH 7.40 [1] | Concentration in tris buffer [1] [µM] | further results
1 | CC(C)CN(C[C@@H](O)[C@H](Cc1ccccc1)NC(=O)O[C@H]1CO[C@H]2OCC[C@H]21)S(=O)(=O)c1ccc(N)cc1 [DRV, darunavir] | 4 | 5 | 14 | 25 | 10 | 30 |  |  |  |  |  |  |  |  |  |  |  |  |  |  | Log POW (Octanol/Water) ([1]; shake flask method): −0.63
2 | COC(=O)N[C@H](C(=O)N[C@@H](Cc1ccccc1)[C@@H](O)CN(Cc1ccc(-c2ccccn2)cc1)NC(=O)[C@@H](NC(=O)OC)C(C)(C)C)C(C)(C)C [ATV, Atazanavir] | 2.1 | 430 | 42 | > 1000 | 81 | 56 | 450 | 214 | 204 | 19 | > 476 | 38 | 24 |  |  |  |  |  |  |  | 
3 | COc1ccc(S(=O)(=O)N(CC(C)C)C[C@@H](O)[C@H](Cc2ccccc2)NC(=O)OC2CO[C@H]3OCC(F)(F)[C@@H]23)cc1 (stereo partly shown) [GRL-04810] |  | 2 | 4 | 21 | 2 | 4 | 14 | 7 | 1 | 2 | 10 | 1 | 2 | 2.3 | 29 to 39 | −0.14 | 72 µM and 72.00 µM | 70.00 | −0.29 | 42.32 | Concentration in water [1]: 99.78 µM; suppression of HIV-1LAI replication (HIV-1LAI; [5]): 94%; suppression of HIV-1LAI replication (HIV-1LAI; [6]): 45%
4 | CC(C)CN(C[C@@H](O)[C@H](Cc1ccccc1)NC(=O)O[C@H]1CO[C@H]2OCC(F)(F)[C@H]21)S(=O)(=O)c1ccc(N)cc1 [GRL-05010] |  | 2 | 4 | 20 | 3 | 4 | 11 | 3 | 1 | 1 | 7 | 1 | 2 | 2.7 | 29 to 39 | −0.83 | 14.09 µM | 18.70 | −1.01 | 49.84 | Concentration in water [1]: 94.55 µM; suppression of HIV-1LAI replication (HIV-1LAI; [5]): 91%; suppression of HIV-1LAI replication (HIV-1LAI; [6]): 73%
5 | CC(C)(C)NC(=O)[C@@H]1C[C@@H]2CCCC[C@@H]2CN1C[C@@H](O)[C@H](Cc1ccccc1)NC(=O)[C@H](CC(N)=O)NC(=O)c1ccc2ccccc2n1 [SQV, Saquinavir] | 3.9 | 310 | 39 | 530 | 110 | 100 | 350 | 90 | 78 | 10 | 133 | 27 | 25 |  | 32 to 36 |  |  |  |  |  | suppression levels of brain-side preparations compared (FIG. 5A) (HIV-1LAI; HIV-1LAI): less than those of GRL-04810^brain and GRL-05010^brain
